The term IC50 denotes the concentration that gives 50% inhibition.

The first experiment deals with T1, CDK8 (CDK8/CycC) (Homo sapiens, UniProt P49336).
T1 construct: purchased Invitrogen PV4402
T1 sequence (P49336 whole entry): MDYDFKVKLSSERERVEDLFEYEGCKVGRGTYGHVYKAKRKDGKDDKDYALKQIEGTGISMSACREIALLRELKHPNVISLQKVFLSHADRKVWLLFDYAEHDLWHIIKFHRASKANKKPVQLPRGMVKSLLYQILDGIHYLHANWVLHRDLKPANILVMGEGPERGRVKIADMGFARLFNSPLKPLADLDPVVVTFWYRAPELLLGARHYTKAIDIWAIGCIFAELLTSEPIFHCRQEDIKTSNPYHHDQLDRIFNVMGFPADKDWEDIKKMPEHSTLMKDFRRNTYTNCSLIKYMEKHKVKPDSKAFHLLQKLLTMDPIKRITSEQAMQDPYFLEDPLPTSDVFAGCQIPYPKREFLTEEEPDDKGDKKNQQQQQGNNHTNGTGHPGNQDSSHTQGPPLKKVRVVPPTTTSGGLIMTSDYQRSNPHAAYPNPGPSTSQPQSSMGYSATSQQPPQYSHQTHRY
T1 sequence (P24863 whole entry partner): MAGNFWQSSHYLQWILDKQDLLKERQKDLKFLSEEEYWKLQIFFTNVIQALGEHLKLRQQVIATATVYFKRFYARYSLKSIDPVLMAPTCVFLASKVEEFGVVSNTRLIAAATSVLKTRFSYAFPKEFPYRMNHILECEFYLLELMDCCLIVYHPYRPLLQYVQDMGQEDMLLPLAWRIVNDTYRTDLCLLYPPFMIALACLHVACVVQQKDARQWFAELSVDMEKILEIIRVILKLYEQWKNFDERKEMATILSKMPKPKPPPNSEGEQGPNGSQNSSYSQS
The experiment can be described thus: FRET based Lanthascreen binding competition assay.
Conditions: not given
Here is the method: FRET based Lanthascreen binding competition assay: A dye-labeled ATP competitive probe served as a FRET acceptor upon binding to CDK8 labeled with a strepavidin —Eu-chelate (via abiotinylated anti His antibody). […] In case this probe was competed by an inhibitor as such a signal cannot be generated any more. The CDK8 used for this assay was a protein co-expressed with CycC.
The assay procedure for an assay in a 1536 well plate was performed according to the following: 2 μL CDK8/biotin-anti-His Ab/SA-Eu mix in Assay buffer were pipetted into the wells of a micro plate.
1 μL compound in 20 mM Hepes buffer/5% DMSO was added. The plate was shaken for 30 sec and incubated for 20 min at RT. 2 μL Alexa647-probe in assay buffer were added. The plate was shaken for 30 sec again and incubated for 60 min at RT in the dark. Then the plate was read out on a Perkin Elmer Envision (mode LANCE/TRF, excitation 340 nm emission 650 nm).
The molecule `COC1CN(C(=O)c2ccc3cncc(-c4ccc5nn(CC(C)(C)O)cc5c4)c3c2)C1` [Compound 133, (4-(2-(2-hydroxy-2-methylpropyl)-2H-indazol-5-yl)isoquinolin-6-yl)(3-methoxyazetidin-1-yl)methanone] gave an IC50 of 10 to 100 nM.

Still in this experiment, the particulars now being: 5 nM CDK8/CycC, 10 nM Alexa647-Tracer, 1% DMSO, 60 min at RT; read-out: IC50 CDK8 binding.
For the molecule `CC(C)(O)Cn1cc(-c2ccc(-c3cncc4ccc(C(N)=O)cc34)cc2)cn1` [Compound 97, 4-(4-(1-(2-hydroxy-2-methylpropyl)-1H-pyrazol-4-yl)phenyl)isoquinoline-6-carboxamide], the IC50 was less than 10 nM.

`Cn1cc(-c2ccc(-c3cncc4ccc(NS(C)(=O)=O)cc34)cc2)cn1` [Compound 98, N-{4-[4-(1-Methyl-1H-pyrazol-4-yl)-phenyl]-isoquinolin-6-yl}-methanesulfonamide]: the IC50 was less than 10 nM.

For the molecule `CN1c2ccc(-c3cncc4ccccc34)cc2CS1(=O)=O` [Compound 100, 5-(isoquinolin-4-yl)-1-methyl-1,3-dihydrobenzo[c]isothiazole 2,2-dioxide], the IC50 was less than 10 nM.

On to `Cn1cc(-c2ccc(-c3cncc4ccc(C(=O)N5CCNCC5)cc34)cc2)cn1` [Compound 102, (4-(4-(1-methyl-1H-pyrazol-4-yl)phenyl)isoquinolin-6-yl)(piperazin-1-yl)methanone], for which the IC50 was less than 10 nM.

Turning to `COCCNc1ccc2cncc(-c3ccc(-c4cnn(C)c4)cc3)c2c1` [Compound 105, (2-Methoxy-ethyl)-{4-[4-(1-methyl-1H-pyrazol-4-yl)-phenyl]-isoquinolin-6-yl}-amine], the IC50 is less than 10 nM.

Consider `CN1c2ccc(-c3cncc4ccc(-c5ncco5)cc34)cc2CS1(=O)=O` [Compound 107, 1-methyl-5-(6-(oxazol-2-yl)isoquinolin-4-yl)-1,3-dihydrobenzo[c]isothiazole 2,2-dioxide], for which the IC50 fell in the range of 10 to 100 nM.

Regarding `Cn1cc(-c2ccc(-c3cncc4ccccc34)cc2)cn1` [Compound 109, 4-(4-(1-methyl-1H-pyrazol-4-yl)phenyl)isoquinoline], the half-inhibitory concentration (IC50) is 10 to 100 nM.

For `Cn1cc(-c2ccc(-c3cncc4ccc(N5CCCCS5(=O)=O)cc34)cc2)cn1` [Compound 110, 6-(1,1-Dioxo-[1,2]thiazinan-2-yl)-4-[4-(1-methyl-1H-pyrazol-4-yl)-phenyl]-isoquinoline], the IC50 lay in the range of 10 to 100 nM.

Regarding `CC1CC(=O)N(c2ccc3cncc(-c4ccc(-c5cnn(C)c5)cc4)c3c2)C1` (centres unmarked) [Compound 111, 4-Methyl-1-{4-[4-(1-methyl-1H-pyrazol-4-yl)-phenyl]-isoquinolin-6-yl}-pyrrolidin-2-one], the IC50 lay within 10 to 100 nM.

As to `O=C(c1ccc2cnccc2c1)N1CCC[C@H]1c1ccc(Cl)cc1` [Compound 113, (S)-(2-(4-chlorophenyl)pyrrolidin-1-yl)(isoquinolin-6-yl)methanone], the IC50 was in the range of 10 to 100 nM.

Regarding `CC1CCC(=O)N1c1ccc2cncc(-c3ccc(-c4cnn(C)c4)cc3)c2c1` (centres unmarked) [Compound 114, 5-Methyl-1-{4-[4-(1-methyl-1H-pyrazol-4-yl)-phenyl]-isoquinolin-6-yl}-pyrrolidin-2-one], the IC50 is 10 to 100 nM.

Consider `Cn1cc(-c2ccc(-c3cncc4ccc(N5CCC(=O)C5)cc34)cc2)cn1` [Compound 115, 1-{4-[4-(1-Methyl-1H-pyrazol-4-yl)-phenyl]-isoquinolin-6-yl}-pyrrolidin-3-one], for which the IC50 lay in the range of 10 to 100 nM.

`Cn1cc(-c2ccc(-c3cncc4ccc(N5CCNC(=O)C5)cc34)cc2)cn1` [Compound 116, 4-{4-[4-(1-Methyl-1H-pyrazol-4-yl)-phenyl]-isoquinolin-6-yl}-piperazin-2-one]: the concentration for half-maximal inhibition (IC50) lay within 10 to 100 nM.

On to `Cn1cc(-c2ccc(-c3cncc4ccc(-c5nnn(C)n5)cc34)cc2)cn1` [Compound 117, 4-(4-(1-methyl-1H-pyrazol-4-yl)phenyl)-6-(2-methyl-2H-tetrazol-5-yl)isoquinoline], for which the IC50 was in the range of 10 to 100 nM.

For the molecule `Cn1cc(-c2ccc(-c3cncc4ccc(C#N)cc34)cc2)cn1` [Compound 118, 4-(4-(1-methyl-1H-pyrazol-4-yl)phenyl)isoquinoline-6-carbonitrile], the IC50 was in the range of 10 to 100 nM.

Take `Cn1ncc2cc(-c3cncc4ccc(C#N)cc34)ccc21` [Compound 120, 4-(1-methyl-1H-indazol-5-yl)isoquinoline-6-carbonitrile]: the IC50 is 10 to 100 nM.

For the molecule `COCC(=O)Nc1ccc2cncc(-c3ccc(-c4cnn(C)c4)cc3)c2c1` [Compound 121, 2-Methoxy-N-{4-[4-(1-methyl-1H-pyrazol-4-yl)-phenyl]-isoquinolin-6-yl}-acetamide], the IC50 was 10 to 100 nM.

As for `O=C(c1ccc2cnccc2c1)N1CCC[C@H]1c1ccccc1` [Compound 122, (S)-isoquinolin-6-yl(2-phenylpyrrolidin-1-yl)methanone], the IC50 was in the range of 10 to 100 nM.

Consider `Cn1cc(-c2ccc(-c3cncc4ccc(-c5nnnn5C)cc34)cc2)cn1` [Compound 123, 4-(4-(1-methyl-1H-pyrazol-4-yl)phenyl)-6-(1-methyl-1H-tetrazol-5-yl)isoquinoline], for which the IC50 lay within 10 to 100 nM.

As to `Cn1cc(-c2ccc(-c3cncc4ccc(C(=O)N5CCN(C(=O)OC(C)(C)C)CC5)cc34)cc2)cn1` [Compound 124, tert-butyl 4-(4-(4-(1-methyl-1H-pyrazol-4-yl)phenyl)isoquinoline-6-carbonyl)piperazine-1-carboxylate], the IC50 was in the range of 101 to 500 nM.

`CC(=O)N1CCN(c2ccc3cncc(-c4ccc(-c5cnn(C)c5)cc4)c3c2)CC1` [Compound 125, 1-(4-{4-[4-(1-Methyl-1H-pyrazol-4-yl)-phenyl]-isoquinolin-6-yl}-piperazin-1-yl)-ethanone]: the IC50 is 101 to 500 nM.

`Cn1cc(-c2ccc(-c3cncc4ccc(N5C(=O)CCC5=O)cc34)cc2)cn1` [Compound 126, 1-{4-[4-(1-Methyl-1H-pyrazol-4-yl)-phenyl]-isoquinolin-6-yl}-pyrrolidine-2,5-dione]: the concentration for half-maximal inhibition (IC50) fell in the range of 101 to 500 nM.

Take `Cn1cc(-c2ccc(-c3cncc4ccc(N5CCCCC5=O)cc34)cc2)cn1` [Compound 127, 1-{4-[4-(1-Methyl-1H-pyrazol-4-yl)-phenyl]-isoquinolin-6-yl}-piperidin-2-one]: the IC50 was in the range of 501 to 1000 nM.

With `Cn1cc(-c2ccc(-c3cncc4ccc(N5CCCC5=O)cc34)cc2)cn1` [Compound 128, 1-(4-(4-(1-Methyl-1H-pyrazol-4-yl)phenyl)isoquinolin-6-yl)pyrrolidin-2-one], the IC50 is 10 to 100 nM.

`CN1c2ccc(-c3cncc4ccc(N5CCCC5=O)cc34)cc2CS1(=O)=O` [Compound 129, 1-(4-(1-Methyl-2,2-dioxido-1,3-dihydrobenzo[c]isothiazol-5-yl)isoquinolin-6-yl)pyrrolidin-2-one]: the IC50 fell in the range of 10 to 100 nM.

Consider `COC1CN(C(=O)c2ccc3cncc(-c4ccc(-c5cnn(CC(C)(C)O)c5)cc4)c3c2)C1` [Compound 131, (4-(4-(1-(2-hydroxy-2-methylpropyl)-1H-pyrazol-4-yl)phenyl)isoquinolin-6-yl)(3-methoxyazetidin-1-yl)methanone], for which the IC50 lay within 10 to 100 nM.

For `COC1CN(C(=O)c2ccc3cncc(-c4ccc5c(cnn5CC(C)(C)O)c4)c3c2)C1` [Compound 132, (4-(1-(2-hydroxy-2-methylpropyl)-1H-indazol-5-yl)isoquinolin-6-yl)(3-methoxyazetidin-1-yl)methanone], the IC50 was in the range of 101 to 500 nM.

Turning to `CC(C)(O)Cn1cc(-c2ccc(-c3cncc4ccc(C(=O)N5CCCC5)cc34)cc2)cn1` [Compound 134], the IC50 lay within 10 to 100 nM.

Consider `CC(C)(O)Cn1cc(-c2ccc(-c3cncc4ccc(C(=O)N5CCOCC5)cc34)cc2)cn1` [Compound 135], for which the IC50 is 10 to 100 nM.

In the case of `CC(C)(O)Cn1cc(-c2ccc(-c3cncc4ccc(C(=O)N5CC(F)(F)C5)cc34)cc2)cn1` [Compound 136], the IC50 fell in the range of 10 to 100 nM.

Regarding `Nc1nccc2cc(C(=O)N3CCC[C@H]3c3ccc(Cl)cc3)ccc12` [Compound 137, (S)-(1-aminoisoquinolin-6-yl)(2-(4-chlorophenyl)pyrrolidin-1-yl)methanone], the half-inhibitory concentration (IC50) fell in the range of 10 to 100 nM.

Turning to `CC(C)(O)Cn1cc(-c2ccc(-c3cncc4ccc(NS(C)(=O)=O)cc34)cc2)cn1` [Compound 138, N-(4-(4-(1-(2-hydroxy-2-methylpropyl)-1H-pyrazol-4-yl)phenyl)isoquinolin-6-yl)methanesulfonamide], the IC50 is less than 10 nM.

Take `CN(c1ccc2cncc(-c3ccc(-c4cnn(C)c4)cc3)c2c1)S(C)(=O)=O` [Compound 139, N-methyl-N-(4-(4-(1-methyl-1H-pyrazol-4-yl)phenyl)isoquinolin-6-yl)methanesulfonamide]: the IC50 lay within 10 to 100 nM.

As for `COC1CN(C(=O)c2ccc3c(N)ncc(-c4ccc5c(cnn5C)c4)c3n2)C1` [Compound 140, (5-amino-8-(1-methyl-1H-indazol-5-yl)-1,6-naphthyridin-2-yl)(3-methoxyazetidin-1-yl)methanone], the IC50 lay within 10 to 100 nM.

Take `O=C1Cc2ccc(-c3cncc4ccc(C(=O)N5CCC5)cc34)cc2N1` [Compound 145, 6-(6-(azetidine-1-carbonyl)isoquinolin-4-yl)indolin-2-one]: the half-inhibitory concentration (IC50) was less than 10 nM.

Consider `O=C1Cc2ccc(-c3cncc4ccc(C(=O)N5CC(F)(F)C5)cc34)cc2N1` [Compound 146, 6-(6-(3,3-difluoroazetidine-1-carbonyl)isoquinolin-4-yl)indolin-2-one], for which the IC50 is 10 to 100 nM.

Consider `N#Cc1ccc2cncc(-c3ccc4c(c3)NC(=O)C4)c2c1` [Compound 148, 4-(2-oxoindolin-6-yl)isoquinoline-6-carbonitrile], for which the 50% inhibitory concentration (IC50) is 10 to 100 nM.

For the origin of these results see patent US20160016951A1 (Merck Patent GmbH, priority 2014, published 2016).
